Target: T1, YEATS domain-containing protein 2 (Homo sapiens) (UniProt Q9ULM3)
T1 sequence (whole entry): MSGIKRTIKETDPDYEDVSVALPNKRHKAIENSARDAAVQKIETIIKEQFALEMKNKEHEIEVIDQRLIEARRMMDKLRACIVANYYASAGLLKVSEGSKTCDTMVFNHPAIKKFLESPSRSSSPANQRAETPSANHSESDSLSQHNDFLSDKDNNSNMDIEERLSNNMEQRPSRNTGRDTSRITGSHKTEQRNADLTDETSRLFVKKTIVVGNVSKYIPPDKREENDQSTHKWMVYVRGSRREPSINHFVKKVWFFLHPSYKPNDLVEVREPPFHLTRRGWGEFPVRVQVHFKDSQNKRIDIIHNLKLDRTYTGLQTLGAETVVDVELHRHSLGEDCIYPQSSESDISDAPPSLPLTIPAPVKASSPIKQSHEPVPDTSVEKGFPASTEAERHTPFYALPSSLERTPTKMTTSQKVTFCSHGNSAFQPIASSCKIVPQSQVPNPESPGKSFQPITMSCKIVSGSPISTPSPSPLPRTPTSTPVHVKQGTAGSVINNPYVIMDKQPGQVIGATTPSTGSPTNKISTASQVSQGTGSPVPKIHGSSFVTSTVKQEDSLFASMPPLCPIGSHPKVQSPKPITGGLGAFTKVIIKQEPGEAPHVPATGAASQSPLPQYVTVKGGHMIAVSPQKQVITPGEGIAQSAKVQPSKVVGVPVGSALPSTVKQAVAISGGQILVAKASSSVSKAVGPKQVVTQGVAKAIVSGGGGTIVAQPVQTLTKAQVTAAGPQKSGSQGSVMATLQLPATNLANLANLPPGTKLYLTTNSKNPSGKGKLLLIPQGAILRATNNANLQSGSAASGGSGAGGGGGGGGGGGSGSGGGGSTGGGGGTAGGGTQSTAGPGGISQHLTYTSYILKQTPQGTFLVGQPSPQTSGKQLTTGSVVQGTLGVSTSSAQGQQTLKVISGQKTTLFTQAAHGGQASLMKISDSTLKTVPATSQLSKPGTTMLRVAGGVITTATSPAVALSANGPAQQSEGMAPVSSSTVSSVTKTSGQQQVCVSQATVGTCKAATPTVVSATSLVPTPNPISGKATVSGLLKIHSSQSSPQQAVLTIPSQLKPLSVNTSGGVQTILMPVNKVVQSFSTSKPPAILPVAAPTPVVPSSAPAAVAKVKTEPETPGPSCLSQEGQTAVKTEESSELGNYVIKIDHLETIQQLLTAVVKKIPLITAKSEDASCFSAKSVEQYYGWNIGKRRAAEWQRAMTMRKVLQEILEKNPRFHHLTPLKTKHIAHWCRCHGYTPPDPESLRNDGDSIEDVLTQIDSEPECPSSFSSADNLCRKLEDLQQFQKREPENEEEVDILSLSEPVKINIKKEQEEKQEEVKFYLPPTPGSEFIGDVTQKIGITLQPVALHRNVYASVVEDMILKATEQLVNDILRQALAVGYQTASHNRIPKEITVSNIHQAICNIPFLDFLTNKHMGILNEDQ
Experiment: Thermal Shift Assay. Domain: start/stop M1-D141
Conditions: Compound concentration 25.0 uM, Protein concentration 2.0 uM

ΔTm: -0.01 c
Structure (SMILES): CN(C)C(=O)c1ccc(-c2cc(C(=O)N[C@@H]3CCc4ccccc43)no2)cc1O
